Assay [1] concerns leukemia SR cells. Put plainly: Apoptosis, Annexin-V-FITC/PI.
For assay [2], the system named is leukemia SR cells. Kind of assay: Cell cycle analysis, PI flow cytometry. Format: cell-based, human. Also noted: increase of cells at pre-G1 phase vs control: concentration or dose not given beside the values. Here is the method: The cells were washed twice using Ice-cold phosphate buffer saline (PBS). • Centrifugation was used to collect the cells, then the cells were fixed in 70% (v/v) ethanol, washed with PBS and re-suspended with 0.10 mg/mL RNase. • After that, cells were stained with […] propidium iodide (PI) and evaluated by flow cytometry using FACSCalibur (Becton Dickinson).

Structures are written as SMILES.

On to `CCn1cc(C(=O)NN=Cc2cccs2)c(=O)c2cc(F)c(N3CCNC(C)C3)c(F)c21` (stereo not shown) [Compound 3e, 1-Ethyl-6,8-difluoro-7-(3-methylpiperazin-1-yl)-4-oxo-N'-(thiophen-2-ylmethylene)-1,4-dihydroquinoline-3-carbohydrazide], for which the “late apoptosis elevation vs control” value with leukemia SR cells [1] was determined as 27.16 folds. Besides, in the assay on leukemia SR cells [1] (3e at 1.90 µM, 24 h), the “Apoptosis %Early” value stood at 5.27%, the “Apoptosis %Late” value was found to be 18.20%, the “Apoptosis %Total” value is recorded as 26.19% and the Necrosis is 2.72%. Also, the “increase of cells at pre-G1 phase vs control” value with leukemia SR cells [2] was 10.19 folds. Besides, in the assay on leukemia SR cells [2] (3e at 1.90 µM, 24 h), the “%G0-G1” value is 24.66%, the “%G2-M” value stood at 49.26%, the “%Pre-G1” value is 26.19% and the “%S” value was 26.08%.
